Experimental data from the NIST ThermoML archive (doi:10.1021/je700099w).
± gives the expanded uncertainty stated by the source.

Tests used:
[1] = 298.15 K; 101.33 kPa; Liquid
[2] = refractive index (Na D-line) (dimensionless); conditions: 298.15 K, 101.33 kPa, Liquid

## CCCCn1cc[n+](C)c1.F[P-](F)(F)(F)(F)F [1-butyl-3-methylimidazolium hexafluorophosphate]
[1]
  mass density: 1367.3 ± 2.9 kg/m3
[2]
  refractive index: 1.40937 ± 0.0011

## CCCCCCn1cc[n+](C)c1.F[P-](F)(F)(F)(F)F [1-hexyl-3-methylimidazolium hexafluorophosphate]
[1]
  mass density: 1293.7 ± 2.5 kg/m3
[2]
  refractive index: 1.41787 ± 0.0011

## CCCCCCCC[n+]1ccn(C)c1.F[P-](F)(F)(F)(F)F [1-octyl-3-methylimidazolium hexafluorophosphate]
[1]
  mass density: 1235.7 ± 2.2 kg/m3
[2]
  refractive index: 1.42302 ± 0.0011

## CCCCO [butan-1-ol]
[1]
  mass density: 805.6 ± 0.5 kg/m3
[2]; Standard Abbe refractometry
  refractive index: 1.39726 ± 0.00072

## CCCCCO [pentan-1-ol]
[1]
  mass density: 810.8 ± 0.8 kg/m3
[2]; Standard Abbe refractometry
  refractive index: 1.40797 ± 0.00075

## CCCO [propan-1-ol]
[1]
  mass density: 799.6 ± 0.8 kg/m3
[2]; Standard Abbe refractometry
  refractive index: 1.38305 ± 0.00075
